Source: ChEMBL document CHEMBL5528035, “Design, Synthesis, and Biological Evaluation for First GPX4 and CDK Dual Inhibitors” (J Med Chem, 2024)

Assays:
[1] = target: CDK2/Cyclin A2 (Homo sapiens) (UniProt P24941+P20248); assay: Inhibition of CDK2/CyclinA2 (unknown origin) at 100 nM preincubated for 15 mins followed by substrate and ATP addition incubated for 10 mins by ADP-glo luminescent assay relative to control; assay type: protein-complex assay; details: time 25.0 min
[2] = target: CDK6/cyclin D3 (Homo sapiens) (UniProt P30281+Q00534); assay: Inhibition of CDK6/CyclinD3 (unknown origin) at 100 nM preincubated for 15 mins followed by substrate and ATP addition incubated for 10 mins by ADP-glo luminescent assay relative to control; assay type: protein-complex assay; details: time 25.0 min
MDA-MB-231 = assay: cells; details: Homo sapiens, MDA-MB-231, 48 h
Description: Antiproliferative activity against human MDA-MB-231 cells assessed as inhibition of cell growth incubated for 48 hrs by CCK-8 assay

HCT-116 = assay: cells; details: Homo sapiens, HCT-116, 48 h
Description: Antiproliferative activity against human HCT-116 cells assessed as inhibition of cell growth incubated for 48 hrs by CCK-8 assay

A549 = assay: cells; details: Homo sapiens, A549, 48 h
Description: Antiproliferative activity against human A549 cells assessed as inhibition of cell growth incubated for 48 hrs by CCK-8 assay

HepG2 = assay: cells; details: Homo sapiens, HepG2, 48 h
Description: Antiproliferative activity against human HepG2 cells assessed as inhibition of cell growth incubated for 48 hrs by CCK-8 assay

inhibition [1]	inhibition [2]	IC50 (MDA-MB-231)	IC50 (HCT-116)	IC50 (A549)	IC50 (HepG2)	Structure (SMILES)
4.02%	4.65%	> 10 µM	> 10 µM	> 10 µM	> 10 µM	O=C(CCn1cc(COc2ccc(N(C(=O)CCl)C(C(=O)NCCc3ccccc3)c3cccs3)cc2Cl)nn1)NCCCO/N=C1/C(=C2/C(=O)Nc3cc(Br)c(Br)cc32)Nc2ccccc21 (configuration not stated)
28.9%	36.8%	3.96 µM	2.91 µM	6.6 µM	4.12 µM	O=C(CCn1cc(COc2ccc(N(C(=O)CCl)C(C(=O)NCCc3ccccc3)c3cccs3)cc2Cl)nn1)NCCCO/N=C1/C(=C2/C(=O)Nc3cc(F)ccc32)Nc2ccccc21 (configuration not stated)
31%	38.5%	7.46 µM	7.17 µM	9.09 µM	9 µM	O=C(CCn1cc(COc2ccc(N(C(=O)CCl)C(C(=O)NCCc3ccccc3)c3cccs3)cc2Cl)nn1)NCCCO/N=C1/C(=C2/C(=O)Nc3cc(Cl)ccc32)Nc2ccccc21 (configuration not stated)
14%	12.8%	> 10 µM	> 10 µM	> 10 µM	> 10 µM	O=C(CCn1cc(COc2ccc(N(C(=O)CCl)C(C(=O)NCCc3ccccc3)c3cccs3)cc2Cl)nn1)NCCCO/N=C1/C(=C2/C(=O)Nc3cc(Cl)c(Cl)cc32)Nc2ccccc21 (configuration not stated)
22.4%	28.3%	8.69 µM	> 10 µM	> 10 µM	> 10 µM	O=C(CCn1cc(COc2ccc(N(C(=O)CCl)C(C(=O)NCCc3ccccc3)c3cccs3)cc2Cl)nn1)NCCCO/N=C1/C(=C2/C(=O)Nc3cc(Br)ccc32)Nc2ccccc21 (configuration not stated)
1.46%	9.29%	> 10 µM	> 10 µM	> 10 µM	> 10 µM	O=C(CCn1cc(COc2ccc(N(C(=O)CCl)C(C(=O)NCCc3ccccc3)c3cccs3)cc2Cl)nn1)O/N=C1/C(=C2/C(=O)Nc3ccccc32)Nc2cc(Br)c(Br)cc21 (configuration not stated)

Continued, compound first:

Structure (SMILES)	inhibition [1]	inhibition [2]	IC50 (MDA-MB-231)	IC50 (HCT-116)	IC50 (A549)	IC50 (HepG2)
O=C(CCn1cc(COc2ccc(N(C(=O)CCl)C(C(=O)NCCc3ccccc3)c3cccs3)cc2Cl)nn1)O/N=C1/C(=C2/C(=O)Nc3ccccc32)Nc2ccc(Cl)cc21 (configuration not stated)	13.5%	40.4%	5.25 µM	4.44 µM	5.15 µM	7.16 µM
COc1ccc2c(c1)NC(=C1\C(=O)Nc3ccccc31)/C2=N/OC(=O)CCn1cc(COc2ccc(N(C(=O)CCl)C(C(=O)NCCc3ccccc3)c3cccs3)cc2Cl)nn1 (configuration not stated)	12.6%	47%	3.88 µM	4.03 µM	4.6 µM	7.88 µM
O=C(CCn1cc(COc2ccc(N(C(=O)CCl)C(C(=O)NCCc3ccccc3)c3cccs3)cc2Cl)nn1)O/N=C1/C(=C2/C(=O)Nc3ccccc32)Nc2cc(Br)ccc21 (configuration not stated)	5.41%	14.7%	> 10 µM	> 10 µM	> 10 µM	> 10 µM
O=C(CCn1cc(COc2ccc(N(C(=O)CCl)C(C(=O)NCCc3ccccc3)c3cccs3)cc2Cl)nn1)O/N=C1/C(=C2/C(=O)Nc3ccccc32)Nc2cc(F)ccc21 (configuration not stated)	9.85%	29.7%	7.12 µM	6.81 µM	6.69 µM	8.19 µM
COc1ccc2c(c1)C(=N\OC(=O)CCn1cc(COc3ccc(N(C(=O)CCl)C(C(=O)NCCc4ccccc4)c4cccs4)cc3Cl)nn1)/C(=C1/C(=O)Nc3ccccc31)N2 (configuration not stated)	14.1%	22%	4.65 µM	6.97 µM	7.04 µM	8.36 µM
O=C(CCn1cc(COc2ccc(N(C(=O)CCl)C(C(=O)NCCc3ccccc3)c3cccs3)cc2Cl)nn1)O/N=C1/C(=C2/C(=O)Nc3ccccc32)Nc2cc(F)c(F)cc21 (configuration not stated)	10.5%	24.4%	> 10 µM	> 10 µM	> 10 µM	> 10 µM
